Test results published in paper PMC5515969, “Effects of 31 FDA approved small-molecule kinase inhibitors on isolated rat liver mitochondria” (Archives of Toxicology, 2016).

Experiments:
[1] = system: isolated rat liver mitochondria; assay: Mitochondrial inner membrane potential (MMP), Rhodamine 123; assay type: biochemical; conditions: difference in signal between KI and DMSO treated samples at the end of experiments
Description: Fig. 3 KI effects on mitochondrial inner membrane potential (MMP). […] In a, c, data are means and standard derivations from three separate experiments. *p < 0.05 as compared to DMSO-treated samples at the end of experiments. In b, data are means of two independent experiments

[2] = system: isolated rat liver mitochondria; assay: Mitochondrial toxicity, any endpoint, intact mitochondria and submitochondrial particles; assay type: biochemical; conditions: any endpoint
Procedure: Rats were anesthetized by an intraperitoneal injection of Nembutal and the liver perfused with PBS to remove the blood. The liver was then cut into small pieces and homogenized using a Dounce type homogenizer in the ice-cold isolation buffer (IB) containing 200 mM sucrose, 10 mM Tris-MOPS, 1 mM EGTA (pH 7.4). The sample was then centrifuged at 600g for 10 min. The supernatant was further centrifuged at 7500g for 10 min, and the pellets was washed once with the IB and centrifuged again at 7500g for 10 min to collect mitochondria. […] Before drug treatment, the protein concentration was adjusted to 1 mg/ml using appropriate buffer. […] Briefly, mitochondrial and cytosolic fractions from four different preparations using four rats were diluted using the Laemmli protein loading buffer and subject to SDS-PAGE with 4–20% gradient gels. The proteins were blotted to PVDF membranes and detected using antibodies against GAPDH, ATP5A, UQCRC2, SDHB, and NDUFB8.
The aliquoted stock solutions were kept for less than one month and each tube was used only once. The KIs were added to the mitochondria at 1:1000 dilutions. […] The Cmax data were from clinical trials which used FDA recommend dosages, route of administration, and duration. […] The final concentration of DMSO for drug treatment was always 0.1%, and control treatments were 0.1% DMSO.

[3] = system: isolated rat liver mitochondria; conditions: positive control alamethicin treated samples
[4] = system: isolated rat liver mitochondria; assay: Mitochondrial oxygen consumption (glutamate/malate or succinate driven, state 4 and state 3); assay type: biochemical; conditions: DMSO treated samples set as 1; as to State 3 respiration driven by succinate at 10XCmax: key: 0 indicates that the drug had no effects (negative); as to State 3 respiration driven by succinate at 1XCmax: key: 0 indicates that the drug had no effects (negative)
Outline: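 Oxygen uptake on glutamate/malate or on succinate defined state 4; ADP added 3 min later gave state 3. Mitochondria isolated from rat liver by differential centrifugation, adjusted to 1 mg/ml and pretreated 5 min with inhibitor (0.1% DMSO final). Values relative to DMSO control, set to 1.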

[5] = system: isolated rat liver mitochondria; assay: Mitochondrial ROS production (CM-H2DCFDA); conditions: DMSO treated samples set as 1
[6] = system: RCC IV; assay: RCC IV activity in submitochondrial particles; assay type: biochemical, rat; set-up: key to RCC IV at 50XCmax / RCC IV at 100XCmax: activity relative to DMSO-treated controls (control set as 1 = 100%); conditions: 50XCmax; DMSO treated samples set as 1; in %
Outline: (§1)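 Rat submitochondrial particles (1 mg/ml) were treated with test compounds for 15 min. RCC IV, like RCC III, was monitored at 550 nm every 10 s for 2 min, and RCC I/V at 340 nm each minute for 6 min. DMSO samples defined unit activity.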

[7] = system: isolated rat liver mitochondria; assay: Mitochondrial swelling (absorbance at 535 nm); assay type: biochemical; conditions: difference in signal between KI and DMSO treated samples at the end of experiments; as to Swelling 5XCmax: key: 0 indicates that the drug had no effects (negative)
[8] = system: RCC III; assay: RCC III activity in submitochondrial particles; assay type: biochemical, rat; set-up: key to RCC III at 100XCmax: activity relative to DMSO-treated controls (control set as 1 = 100%); conditions: 100XCmax
Outline: as §1

[9] = biological target: T1, RCC II (Rattus norvegicus, UniProt P21913+Q641Z9+Q6PCT8+Q920L2); assay: RCC II activity in submitochondrial particles; assay type: biochemical; set-up: key: activity relative to DMSO-treated controls (control set as 1 = 100%); conditions: DMSO treated samples set as 1
T1 construct: Submitochondrial particles were prepared by subjecting the intact mitochondria to three successive freeze–thaw cycles; from tissue; host or cells: rat liver mitochondria, used as submitochondrial particles
T1 sequence (Q920L2 35-656): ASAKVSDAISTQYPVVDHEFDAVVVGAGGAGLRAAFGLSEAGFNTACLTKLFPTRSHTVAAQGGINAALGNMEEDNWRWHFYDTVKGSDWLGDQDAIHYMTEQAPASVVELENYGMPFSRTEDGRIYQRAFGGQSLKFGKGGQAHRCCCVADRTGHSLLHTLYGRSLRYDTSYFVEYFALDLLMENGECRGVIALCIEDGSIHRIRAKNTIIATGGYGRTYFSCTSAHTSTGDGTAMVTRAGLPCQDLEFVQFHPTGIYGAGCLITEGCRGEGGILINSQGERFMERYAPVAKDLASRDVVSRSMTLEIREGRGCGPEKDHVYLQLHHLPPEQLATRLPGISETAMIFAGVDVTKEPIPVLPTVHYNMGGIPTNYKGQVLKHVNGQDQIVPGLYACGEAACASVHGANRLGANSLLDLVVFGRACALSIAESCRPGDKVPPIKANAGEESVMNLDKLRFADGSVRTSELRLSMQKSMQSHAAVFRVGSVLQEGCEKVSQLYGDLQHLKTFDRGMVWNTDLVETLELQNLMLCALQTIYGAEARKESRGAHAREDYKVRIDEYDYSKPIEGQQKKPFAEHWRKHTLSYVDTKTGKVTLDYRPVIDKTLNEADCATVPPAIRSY
T1 sequence (P21913 31-282): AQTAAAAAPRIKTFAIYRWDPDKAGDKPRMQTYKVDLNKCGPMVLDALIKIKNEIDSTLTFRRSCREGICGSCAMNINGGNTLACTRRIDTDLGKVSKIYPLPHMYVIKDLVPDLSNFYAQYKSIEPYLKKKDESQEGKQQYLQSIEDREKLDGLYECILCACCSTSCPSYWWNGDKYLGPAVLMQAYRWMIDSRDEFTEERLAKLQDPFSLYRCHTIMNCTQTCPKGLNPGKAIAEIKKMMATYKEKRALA
T1 sequence (Q641Z9 1-169): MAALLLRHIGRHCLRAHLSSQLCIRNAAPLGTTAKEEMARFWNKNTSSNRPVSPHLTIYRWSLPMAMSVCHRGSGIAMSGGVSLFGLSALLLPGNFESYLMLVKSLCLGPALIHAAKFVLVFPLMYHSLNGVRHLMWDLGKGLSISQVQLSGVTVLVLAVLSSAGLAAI
T1 sequence (Q6PCT8 57-159): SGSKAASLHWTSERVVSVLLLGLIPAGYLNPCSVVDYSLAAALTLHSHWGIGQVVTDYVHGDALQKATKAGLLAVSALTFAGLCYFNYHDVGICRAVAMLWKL
Outline: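 Activity relative to DMSO (set as 1) after 15-min exposure of submitochondrial particles (1 mg/ml) to compound. RCC I is defined as rotenone-sensitive activity and RCC II is followed at 600 nm over 6 min.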

[10] = system: RCC I; assay: RCC I activity in submitochondrial particles; assay type: biochemical, rat; set-up: key to RCC I at 10XCmax / RCC I at 100XCmax / RCC I at 50XCmax / RCC I at 30XCmax / RCC I at 20XCmax: activity relative to DMSO-treated controls (control set as 1 = 100%); conditions: 10XCmax; DMSO treated samples set as 1
Outline: as §1

[11] = system: RCC V; assay: RCC V activity in submitochondrial particles; assay type: biochemical, rat; conditions: DMSO treated samples set as 1; as to RCC V at 5XCmax: key: 0 indicates that the drug had no effects (negative)
Outline: as §1

## C=CC(=O)N1CCC[C@@H](n2nc(-c3ccc(Oc4ccccc4)cc3)c3c(N)ncnc32)C1 [Ibrutinib]
[1]; 1XCmax
  MMP measured by Rhodamine 123 at 1XCmax: 0
[1]; 2.5XCmax
  MMP measured by Rhodamine 123 at 2.5XCmax: 0
[1]; 5XCmax
  MMP measured by Rhodamine 123 at 5XCmax: 0
[1]; 10XCmax
  MMP measured by Rhodamine 123 at 10XCmax: 0
[1]; 20XCmax
  MMP measured by Rhodamine 123 at 20XCmax: 0
[1]; 30XCmax
  MMP measured by Rhodamine 123 at 30XCmax: 0
[1]; 50XCmax
  MMP measured by Rhodamine 123 at 50XCmax: 0
[1]; 100XCmax
  MMP measured by Rhodamine 123 at 100XCmax: 0
[2]
  lowest concentration causing significant mitochondrial toxicity: 50 fold Cmax
[3]; 1XCmax
  Cytochrome c release 1XCmax: 0
[3]; 2.5XCmax
  Cytochrome c release 2.5XCmax: 0
[3]; 5XCmax
  Cytochrome c release 5XCmax: 0
[3]; 10XCmax
  Cytochrome c release 10XCmax: 0
[3]; 20XCmax
  Cytochrome c release 20XCmax: 0
[3]; 30XCmax
  Cytochrome c release 30XCmax: 0
[3]; 50XCmax
  Cytochrome c release 50XCmax: 0
[3]; 100XCmax
  Cytochrome c release 100XCmax: 0
[4]; 1XCmax
  State 3 respiration driven by succinate at 1XCmax: 0
  State 4 respiration driven by succinate at 1XCmax: 0
[4]; 2.5XCmax
  State 3 respiration driven by succinate at 2.5XCmax: 0
  State 4 respiration driven by succinate at 2.5XCmax: 0
[4]; 5XCmax
  State 3 respiration driven by succinate at 5XCmax: 0
  State 4 respiration driven by succinate at 5XCmax: 0
[4]; 10XCmax
  State 3 respiration driven by succinate at 10XCmax: 0
  State 4 respiration driven by succinate at 10XCmax: 0
[4]; 20XCmax
  State 3 respiration driven by succinate at 20XCmax: 0
  State 4 respiration driven by succinate at 20XCmax: 0
[4]; 30XCmax
  State 3 respiration driven by succinate at 30XCmax: 0
  State 4 respiration driven by succinate at 30XCmax: 0
[4]; 50XCmax
  State 3 respiration driven by succinate at 50XCmax: 0
  State 4 respiration driven by succinate at 50XCmax: 0
[4]; 100XCmax
  State 3 respiration driven by succinate at 100XCmax: 0
  State 4 respiration driven by succinate at 100XCmax: 0
[5]; 1XCmax
  ROS measured by CM-H2DCFDA at 1XCmax: 0
[5]; 2.5XCmax
  ROS measured by CM-H2DCFDA at 2.5XCmax: 0
[5]; 5XCmax
  ROS measured by CM-H2DCFDA at 5XCmax: 0
[5]; 10XCmax
  ROS measured by CM-H2DCFDA at 10XCmax: 0
[5]; 20XCmax
  ROS measured by CM-H2DCFDA at 20XCmax: 0
[5]; 30XCmax
  ROS measured by CM-H2DCFDA at 30XCmax: 0
[5]; 50XCmax
  ROS measured by CM-H2DCFDA at 50XCmax: 0
[5]; 100XCmax
  ROS measured by CM-H2DCFDA at 100XCmax: 0
[6]
  RCC IV at 50XCmax: 0
[7]; 1XCmax
  Swelling 1XCmax: 0
[7]; 2.5XCmax
  Swelling 2.5XCmax: 0
[7]; 5XCmax
  Swelling 5XCmax: 0
[7]; 10XCmax
  Swelling 10XCmax: 0
[7]; 20XCmax
  Swelling 20XCmax: 0
[7]; 30XCmax
  Swelling 30XCmax: 0
[7]; 50XCmax
  Swelling 50XCmax: 0
[7]; 100XCmax
  Swelling 100XCmax: 0
[8]
  RCC III at 100XCmax: 0
[9]; 1.0XCmax
  RCC II at 1.0XCmax: 0
[9]; 2.5XCmax
  RCC II at 2.5XCmax: 0
[9]; 5XCmax
  RCC II at 5XCmax: 0
[9]; 10XCmax
  RCC II at 10XCmax: 0
[9]; 20XCmax
  RCC II at 20XCmax: 0
[9]; 30XCmax
  RCC II at 30XCmax: 0
[9]; 50XCmax
  RCC II at 50XCmax: 0
[9]; 100XCmax
  RCC II at 100XCmax: 0
[10]
  RCC I at 10XCmax: 0
[11]; 5XCmax
  RCC V at 5XCmax: 0
[11]; 50XCmax
  RCC V at 50XCmax: 0
